# Values of other authors as cited in paper PMC9150182 (ACS Sensors, 2022).
# Experiments:
# 5-HT4 isoform g 302Y>F [1] = conditions: 302Y>F variant, COS7 cells
# 5-HT4 isoform g 302Y>F [2] = conditions: 302Y>F variant, COS7 cells; remark: listed apart in the source
# 5-HT1A = target: T1, 5-HT1A (Homo sapiens, UniProt P08908); conditions: yeast, Gpa1/Gαi3 chimera
# T1 sequence (P08908 1-422): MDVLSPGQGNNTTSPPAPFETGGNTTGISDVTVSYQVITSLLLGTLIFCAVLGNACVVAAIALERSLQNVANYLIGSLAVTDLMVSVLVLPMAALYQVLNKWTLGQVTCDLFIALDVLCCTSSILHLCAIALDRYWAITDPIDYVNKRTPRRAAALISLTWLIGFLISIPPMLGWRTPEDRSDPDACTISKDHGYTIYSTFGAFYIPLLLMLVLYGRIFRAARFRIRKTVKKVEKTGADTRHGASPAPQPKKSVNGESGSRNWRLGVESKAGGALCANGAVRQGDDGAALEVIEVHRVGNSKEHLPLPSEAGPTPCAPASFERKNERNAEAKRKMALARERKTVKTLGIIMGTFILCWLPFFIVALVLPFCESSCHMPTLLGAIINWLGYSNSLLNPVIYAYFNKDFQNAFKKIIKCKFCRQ
decrease of affinity to the receptor (5-HT4 isoform g 302Y>F [1]),Structure (SMILES),effect of variant on serotonin-induced activity (5-HT4 isoform g 302Y>F [2]),increase over basal fluorescence after activation with serotonin (5-HT1A)
13 fold,Cn1cc(C(=O)OCC2CCN(CCNS(C)(=O)=O)CC2)c2ccccc21 [GR113808],,
,NCCc1c[nH]c2ccc(O)cc12 [serotonin],did not affect serotonin-induced activity,300%
